The results in this text go back to PubChem BioAssay AID256 (DTP/NCI, 2004).

The assay concerns CD2F1 mice, L1210 leukemia ip, survival T/C. The assay can be described thus: NCI In Vivo Anticancer Drug Screen. Data for tumor model L1210 Leukemia (intraperitoneal) in CD2F1 (CDF1) mice. To be noted: endpoint: mean survival time, higher = longer survival. Put shortly: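 Transplantable tumor in mice; compound-treated vs vehicle-treated groups. Read-out = treated/control ratio of the measured endpoint.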

Values joined by “and” are separate entries in the source; they are usually repeats but may differ in a detail not shown here. Equal values may be shown once. Toxic doses and inconclusive results are not listed.

On to `O=C(Nc1ccccn1)C(O)C(O)C(O)C(O)CO` (centres undefined), for which the T/C is, setting by setting: (dose: 12.5 mg/kg/injection, schedule: Q04DX003 (ip), vehicle: saline with Tween-80) 96 % of control; (dose: 25.0 mg/kg/injection, schedule: Q04DX003 (ip), vehicle: saline with Tween-80) 101 % of control; (dose: 50.0 mg/kg/injection, schedule: Q04DX003 (ip), vehicle: saline with Tween-80) 89 % of control.

Regarding `O=S(=O)(O)O.[Pt].c1ccc([PH+](c2ccccc2)c2ccccc2)cc1.c1ccc([PH+](c2ccccc2)c2ccccc2)cc1.c1ccc([PH+](c2ccccc2)c2ccccc2)cc1`, the T/C (dose: 3.12 mg/kg/injection, schedule: Q04DX003 (ip), vehicle: distilled water + Tween-80) was 102 % of control; the T/C (dose: 6.25 mg/kg/injection, schedule: Q04DX003 (ip), vehicle: distilled water + Tween-80) is 102 % of control; the T/C (dose: 12.5 mg/kg/injection, schedule: Q04DX003 (ip), vehicle: distilled water + Tween-80) is 105 % of control; the T/C (dose: 25.0 mg/kg/injection, schedule: Q04DX003 (ip), vehicle: distilled water + Tween-80) was 102 % of control.

As to `S=C=NCc1cccc(CN=C=S)c1`, the T/C by setting is: (dose: 1.5 mg/kg/injection, schedule: Q01DX009 (ip), vehicle: saline with Tween-80) 98 % of control; (dose: 3.0 mg/kg/injection, schedule: Q01DX009 (ip), vehicle: saline with Tween-80) 101 % of control; (dose: 6.25 mg/kg/injection, schedule: Q04DX003 (ip), vehicle: saline) 101 % of control; (dose: 12.5 mg/kg/injection, schedule: Q04DX003 (ip), vehicle: saline) 103 % of control; (dose: 25.0 mg/kg/injection, schedule: Q04DX003 (ip), vehicle: saline) 101 % of control.

Turning to `NC(N)=N/N=C/c1ccncc1`, the T/C (dose: 100.0 mg/kg/injection, schedule: Q04DX002 (ip), vehicle: saline) is 92 % of control.

For the molecule `CC(=O)C(C(C)=O)C1=C(Cl)C(=O)c2ccccc2C1=O`, the T/C was 94 % of control (dose: 75.0 mg/kg/injection, schedule: Q01DX001 (ip), vehicle: other); 100 % of control (dose: 150.0 mg/kg/injection, schedule: Q01DX001 (ip), vehicle: other); 97 % of control (dose: 300.0 mg/kg/injection, schedule: Q01DX001 (ip), vehicle: other).

Regarding `CNNCc1ccc(C(=O)NC(N)=O)cc1`, the T/C by setting is: (dose: 8.0 mg/kg/injection, schedule: Q03HX024 (ip), vehicle: saline) 124 % of control; (dose: 16.0 mg/kg/injection, schedule: Q01DX005 (iv), vehicle: saline) 123 % of control; (dose: 16.0 mg/kg/injection, schedule: Q03HX008 (ip), vehicle: saline) 112 % of control; (dose: 16.0 mg/kg/injection, schedule: Q03HX016 (ip), vehicle: saline) 110 % of control; (dose: 16.0 mg/kg/injection, schedule: Q03HX024 (ip), vehicle: saline) 124 % of control; (dose: 32.0 mg/kg/injection, schedule: Q01DX005 (iv), vehicle: saline) 119 % of control. For the same molecule, the T/C is, setting by setting: (dose: 32.0 mg/kg/injection, schedule: Q01DX008 (ip), vehicle: saline) 119 % of control; (dose: 32.0 mg/kg/injection, schedule: Q03HX008 (ip), vehicle: saline) 115 % of control; (dose: 32.0 mg/kg/injection, schedule: Q03HX016 (ip), vehicle: saline) 120 % of control; (dose: 64.0 mg/kg/injection, schedule: Q01DX005 (iv), vehicle: saline) 112 % of control; (dose: 64.0 mg/kg/injection, schedule: Q03HX008 (ip), vehicle: saline) 117 % of control; (dose: 64.0 mg/kg/injection, schedule: Q04DX003 (ip), vehicle: saline) 121 % of control. In addition, the T/C reads like this: (dose: 128.0 mg/kg/injection, schedule: Q01DX001 (ip), vehicle: saline) 107 % of control; (dose: 128.0 mg/kg/injection, schedule: Q01DX001 (iv), vehicle: saline) 103 % of control; (dose: 128.0 mg/kg/injection, schedule: Q01DX001 (oral), vehicle: saline) 114 % of control; (dose: 128.0 mg/kg/injection, schedule: Q01DX005 (iv), vehicle: saline) 122 % of control; (dose: 128.0 mg/kg/injection, schedule: Q01DX009 (oral), vehicle: saline) 164 % of control; (dose: 128.0 mg/kg/injection, schedule: Q04DX003 (ip), vehicle: saline) 118 % of control. In addition, the T/C (dose: 128.0 mg/kg/injection, schedule: Q08DX002 (ip), vehicle: saline) was 116 % of control; the T/C (dose: 222.0 mg/kg/injection, schedule: Q01DX Z (ip), vehicle: saline) was 162 % of control; the T/C (dose: 256.0 mg/kg/injection, schedule: Q01DX001 (ip), vehicle: saline) is 120 % of control; the T/C (dose: 256.0 mg/kg/injection, schedule: Q01DX001 (iv), vehicle: saline) is 106 % of control; the T/C (dose: 256.0 mg/kg/injection, schedule: Q01DX001 (oral), vehicle: saline) was 117 % of control; the T/C (dose: 256.0 mg/kg/injection, schedule: Q01DX009 (oral), vehicle: saline) was 169 % of control. For the same molecule, the T/C (dose: 256.0 mg/kg/injection, schedule: Q04DX003 (ip), vehicle: saline) is 121 % of control; the T/C (dose: 256.0 mg/kg/injection, schedule: Q08DX002 (ip), vehicle: saline) was 123 % of control; the T/C (dose: 333.0 mg/kg/injection, schedule: Q01DX Z (ip), vehicle: saline) is 120 % of control; the T/C (dose: 512.0 mg/kg/injection, schedule: Q01DX001 (ip), vehicle: saline) was 124 % of control; the T/C (dose: 512.0 mg/kg/injection, schedule: Q01DX001 (iv), vehicle: saline) was 114 % of control; the T/C (dose: 512.0 mg/kg/injection, schedule: Q08DX002 (ip), vehicle: saline) is 118 % of control.

As for `CC(=O)NC1C(OS(=O)(=O)c2ccc(C)cc2)C(NC(C)=O)C(OC(C)=O)C(OC(C)=O)C1OC(C)=O` (centres undefined), the T/C is 97 % of control (dose: 100.0 mg/kg/injection, schedule: Q01DX001 (ip), vehicle: saline with Tween-80); 103 % of control (dose: 200.0 mg/kg/injection, schedule: Q01DX001 (ip), vehicle: saline with Tween-80); 101 % of control (dose: 400.0 mg/kg/injection, schedule: Q01DX001 (ip), vehicle: saline with Tween-80).

Consider `NC(=S)NNc1c(NNC(N)=S)c(=O)c1=O`, for which the T/C is, setting by setting: (dose: 100.0 mg/kg/injection, schedule: Q01DX001 (ip), vehicle: saline) 93 % of control; (dose: 200.0 mg/kg/injection, schedule: Q01DX001 (ip), vehicle: saline) 98 % of control; (dose: 400.0 mg/kg/injection, schedule: Q01DX001 (ip), vehicle: saline) 102 % of control.

On to `COc1cc2cccc(N)c2cc1OC`, for which the T/C is, setting by setting: (dose: 12.5 mg/kg/injection, schedule: Q01DX009 (ip), vehicle: water) 95 % of control; (dose: 25.0 mg/kg/injection, schedule: Q01DX009 (ip), vehicle: water) 95 % of control; (dose: 50.0 mg/kg/injection, schedule: Q01DX009 (ip), vehicle: water) 95 % of control.

In the case of `O=NN(CCBr)C(=O)Nc1ccccc1`, the T/C reads like this: (dose: 9.0 mg/kg/injection, schedule: Q01DX Z (ip), vehicle: carboxymethylcellulose (CMC)) 150 % of control; (dose: 18.0 mg/kg/injection, schedule: Q01DX Z (ip), vehicle: carboxymethylcellulose (CMC)) 162 % of control; (dose: 25.0 mg/kg/injection, schedule: Q01DX Z (ip), vehicle: carboxymethylcellulose (CMC)) 158 % of control; (dose: 37.0 mg/kg/injection, schedule: Q01DX Z (ip), vehicle: carboxymethylcellulose (CMC)) 183 % of control; (dose: 75.0 mg/kg/injection, schedule: Q01DX Z (ip), vehicle: carboxymethylcellulose (CMC)) 115 % of control; (dose: 100.0 mg/kg/injection, schedule: Q01DX Z (ip), vehicle: carboxymethylcellulose (CMC)) 103 % of control. Moreover, the T/C (dose: 150.0 mg/kg/injection, schedule: Q01DX Z (ip), vehicle: carboxymethylcellulose (CMC)) was 90 % of control.

Take `COC(=O)C(N)Cc1ccc(O)c(O)c1` (centres undefined): the T/C runs as follows: (dose: 12.5 mg/kg/injection, schedule: Q01DX009 (ip), vehicle: saline) 101 % of control and 107 % of control; (dose: 25.0 mg/kg/injection, schedule: Q01DX009 (ip), vehicle: saline) 101 % of control and 107 % of control; (dose: 50.0 mg/kg/injection, schedule: Q01DX009 (ip), vehicle: saline) 95 % of control and 103 % of control; (dose: 100.0 mg/kg/injection, schedule: Q01DX009 (ip), vehicle: saline) 94 % of control and 103 % of control and 107 % of control; (dose: 200.0 mg/kg/injection, schedule: Q01DX009 (ip), vehicle: saline) 113 % of control and 101 % of control and 110 % of control; (dose: 400.0 mg/kg/injection, schedule: Q01DX009 (ip), vehicle: saline) 117 % of control and 110 % of control (2×). In addition, the T/C (dose: 800.0 mg/kg/injection, schedule: Q01DX009 (ip), vehicle: saline) was 116 % of control and 123 % of control.
